In patent US11547301B2, “Methods for collecting and testing bacteria containing samples from within the gastrointestinal tract” (priority 2016, dated 2023):

Columns and labels:
[1] = test system: Propionibacterium acnes and Staphylococcus epidermidis; settings: aerobic and anaerobic organisms; cited from earlier work
[2] = test system: dermatophytes, yeasts, moulds and other fungi; settings: cited from earlier work
[3] = test system: Gram-positive and Gram-negative bacteria; settings: e.g., Escherichia coli, Proteus mirabilis, Pseudomonas aeruginosa, Staphylococcus and Streptococcus species; cited from earlier work
[4] = test system: C. albicans; assay: Fungal contamination of incubated OD assay, with or without anti-fungal recovery media; type: cell-based; settings: TSB containing 2.5 mg/L Amphotericin B
[5] = test system: Staphylococcus epidermidis ATCC 12228; assay: OD (600 nm) of incubated bacterial samples under simulated GI conditions (bile, mucin, pH, yeast), 4 hour incubation; type: cell-based; settings: Yeast Amphotericin B
Description: (§1) Experiments were performed in order to simulate an ingestible device that contains sterile media that is inoculated with a sample of fluid from the GI tract and incubated in transit. […] The samples were also incubated under conditions of shear forces and temperature that simulate conditions of an ingestible device in transit within the GI tract.
(§2) The assay utilized 50 μL, sample volumes, under shear (110 rpm) and at body temperature (37° C.) over a 4 hour incubation period to simulate transit of an ingestible device within the GI tract. […] Experiments were conducted in quintuplicate.

[6] = test system: Escherichia coli ATCC 25922; assay: as above; type: cell-based; settings: Yeast+Amphotericin B
Description: as §1, §2

[7] = numerous murine models; cited from earlier work
[8] = target: human IL-6 (Homo sapiens, UniProt P05231); settings: cited from earlier work
Sequence of human IL-6 (P05231 30-212): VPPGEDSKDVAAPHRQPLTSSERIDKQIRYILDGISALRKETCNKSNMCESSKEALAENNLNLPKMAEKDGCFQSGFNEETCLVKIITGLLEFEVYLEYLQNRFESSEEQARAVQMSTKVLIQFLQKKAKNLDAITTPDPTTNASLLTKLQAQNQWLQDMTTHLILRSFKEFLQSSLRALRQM

Molecule: O=C(O)CCCCCCCC(=O)O [Azelaic acid]
- antibacterial effects [1]: antibacterial effects

Molecule: Cc1cc(C2CCCCC2)n(O)c(=O)c1 [Ciclopirox]
- antifungal activity [2]: fungicidal, fungistatic and sporicidal activity
- activity against bacteria [3]: effective

Molecule: C[C@@H]1[C@H](O)[C@@H](C)/C=C/C=C/C=C/C=C/C=C/C=C/C=C/[C@H](O[C@@H]2O[C@H](C)[C@@H](O)[C@H](N)[C@@H]2O)C[C@@H]2O[C@](O)(C[C@@H](O)C[C@@H](O)[C@H](O)CC[C@@H](O)C[C@@H](O)CC(=O)O[C@H]1C)C[C@H](O)[C@H]2C(=O)O [amphotericin B, Amphotericin B]
- Effect on background fungal growth (plate counts and optical density) [4]: reduced the background fungal growth
- OD (600 nm) Mean ([5]; SE 10^3 initial concentration): 0.0425
- OD (600 nm) Mean ([5]; SE 10^4 initial concentration): 0.0437
- OD (600 nm) Mean ([5]; SE 10^5 initial concentration): 0.0454
- OD (600 nm) Mean ([5]; SE 10^6 initial concentration): 0.0611
- OD (600 nm) Mean ([5]; SE 10^7 initial concentration): 0.0971
- OD (600 nm) Mean ([6]; EC 10^3 initial concentration): 0.0410
- OD (600 nm) Mean ([6]; EC 10^4 initial concentration): 0.0432
- OD (600 nm) Mean ([6]; EC 10^5 initial concentration): 0.0562
- OD (600 nm) Mean ([6]; EC 10^6 initial concentration): 0.1038
- OD (600 nm) Mean ([6]; EC 10^7 initial concentration): 0.1274

Molecule: L-glutamic acid polymer with L-alanine, L-lysine and L-tyrosine, acetate (salt) [Glatiramer acetate]
- inflammation and pathological manifestations of IBD [7]: reduce inflammation and ameliorate the pathological manifestations

Molecule: siltuximab: chimeric, human-murine, immunoglobulin (Ig) Gκ mAb that binds and neutralizes human IL-6
- binding and neutralization of human IL-6 [8]: high affinity and specificity
